According to patent US11827628B2, “Compositions and methods for inhibition of the JAK pathway” (Rigel Pharmaceuticals, Inc., priority 2005, dated 2023):
Read-outs that look alike come from different tables or passages of the source. One block for each molecule: values may come before it.

Key:
[1] = system: Primary human T-cells; assay: Primary Human T-Cell Proliferation Assay Stimulated with IL-2 (CellTiter-Glo); type: cell-based; conditions: read-out: IC50, Example 42
From the text: The activity of the active compounds of the invention may further be characterized by assaying the effect of the 2,4-substituted pyrimidinediamine compounds described herein on the proliferative response of primary human T-cells. In this assay, primary human T-cells derived from peripheral blood and pre-activated through stimulation of the T-cell receptor and CD28, proliferate in culture in response to the cytokine Interleukin-2 (IL-2). This proliferative response is dependent on the activation of JAK1 and JAK3 tyrosine kinases, which phosphorylate and activate the transcription factor Stat-5. The primary human T-cells are incubated with the 2,4-substituted pyrimidinediamine compounds in the presence of IL-2 for 72 hours and at the assay endpoint intracellular ATP concentrations are measured to assess cell viability. A reduction in cell proliferation compared to control conditions is indicative of inhibition of the JAK kinase pathway. An exemplary assay of this type is described in greater detail in Example 42
Primary human T-cells derived from peripheral blood and pre-activated through stimulation of the T-cell receptor and CD28, proliferate in vitro in response to the cytokine Interleukin-2 (IL-2). This proliferative response is dependent on the activation of JAK-1 and JAK-3 tyrosine kinases, which phosphorylate and activate the transcription factor Stat-5.
Human primary T cells were prepared as follows. Whole blood was obtained from a healthy volunteer, mixed 1:1 with PBS, layered on to Ficoll Hypaque (Amersham Pharmacia Biotech, Piscataway, NJ, Catalog #17-1440-03) in 2:1 blood/PBS:ficoll ratio and centrifuged for 30 min at 4° C. at 1750 rpm. The lymphocytes at the serum: ficoll interface were recovered and washed twice with 5 volumes of PBS. The cells were resuspended in Yssel's medium (Gemini Bio-products, Woodland, CA, Catalog #400-103) containing 40 U/mL recombinant IL2 (R and D Systems, Minneapolis, MN, Catalog #202-IL (20 rig)) and seeded into a flask pre-coated with 1 μg/mL anti-CD3 (BD Pharmingen, San Diego, CA, Catalog #555336) and 5 μg/mL anti-CD28 (Immunotech, Beckman Coulter of Brea CA, Catalog #IM1376). The primary T-cells were stimulated for 3-4 days, then transferred to a fresh flask and maintained in RPMI with 10% FBS and 40 U/mL IL-2.
Primary T-cells were washed twice with PBS to remove the IL-2 and resuspended in Yssel's medium at 2×10^6 cells/mL. 50 μL of cell suspension containing 80 U/mL IL-2 was added to each well of a flat bottom 96 well black plate. For the unstimulated control, IL-2 was omitted from the last column on the plate. Compounds were serially diluted in dimethyl sulfoxide (DMSO, 99.7% pure, cell culture tested, Sigma-Aldrich, St. Louis, MO, Catalog No. D2650) from 5 mM in 3-fold dilutions, and then diluted 1:250 in Yssel's medium. 50 μL of 2× compound was added per well in duplicate and the cells were allowed to proliferate for 72 hours at 37° C.
Proliferation was measured using CellTiter-Glo® Luminescent Cell Viability Assay (Promega), which determines the number of viable cells in culture based on quantitation of the ATP present, as an indicator of metabolically active cells. The substrate was thawed and allowed to come to room temperature. After mixing the Cell Titer-Glo reagent and diluent together, 100 μL was added to each well. The plates were mixed on an orbital shaker for two minutes to induce lysis and incubated at room temperature for an additional ten minutes to allow the signal to equilibrate. Detection was performed using a Wallac Victor2 1420 multilabel counter purchased from Perkin Elmer, Shelton, CT The IC50 calculated based on the results of this assay are provided in TABLE XII.

[2] = system: IL-4 stimulated expression of CD23 in human Ramos B cells (JAK-1 and JAK-3); assay: Assay for Ramos B-Cell Line Stimulated with IL-4 (CD23 upregulation, FACS); type: cell-based; conditions: read-out: IC50, Example 41
Procedure, shortened: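 Read-out is surface CD23 by FACS after anti-CD23-PE staining, giving IC50. Before this, cells were stimulated 20-24 h with 50 units/mL (final) human IL-4, following 1 h compound or vehicle pre-treatment at 37 °C; log-phase Ramos B cells, 5×10^4 per well in 5% serum RPMI.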

[3] = primary human T-cells stimulated with IL-2, proliferation
[4] = Ramos B cells stimulated with IL-4, CD23 expression by FACS
[5] = Homo sapiens, T-cell, primary human T-cells stimulated with IL-2, proliferation
[6] = Homo sapiens, Ramos, Ramos B cells stimulated with IL-4, CD23 expression by FACS
[7] = primary human T-cell proliferation stimulated with IL-2
[8] = Ramos B-cell line stimulated with IL-4, CD23 expression by FACS
[9] = Homo sapiens, T-cell, primary human T-cell proliferation stimulated with IL-2
[10] = Homo sapiens, Ramos, Ramos B-cell line stimulated with IL-4, CD23 expression by FACS

Molecule: NS(=O)(=O)c1cccc(Nc2ncc(F)c(Nc3ccc(OCc4ccccn4)cc3)n2)c1 [Compound I-162, N2-(3-Aminosulfonylphenyl)-5-fluoro-N4-[4-(2-pyridinyl)methyleneoxyphenyl]-2,4-pyrimidinediamine]
IC50 [1, 7]: 136 nM
IC50 [2, 8]: 51 nM

Molecule: Cc1cc(CCC#N)ccc1Nc1nc(Nc2cccc(S(N)(=O)=O)c2)ncc1F [III-26, N2-(3-Aminosulfonylphenyl)-N4-(4-cyanoethylene-2-methylphenyl)-5-fluoro-2,4-pyrimidinediamine]
IC50 [1, 7]: 583 nM
IC50 [2, 8]: 162 nM

Molecule: NS(=O)(=O)c1cccc(Nc2ncc(F)c(Nc3ccc(Cc4ccccc4)cc3)n2)c1 [III-62, N2-(3-Aminosulfonylphenyl)-N4-(4-benzylphenyl)-5-fluoro-2,4-pyrimidinediamine]
IC50 [1, 9]: 699 nM
IC50 [2, 10]: 172 nM

Molecule: NS(=O)(=O)c1cccc(Nc2ncc(F)c(Nc3ccc(Cc4cc[n+]([O-])cc4)cc3)n2)c1 [III-80, N2-(3-Aminosulfonylphenyl)-5-fluoro-N4-[4-(1-oxido-4-pyridylmethyl)phenyl]-2,4-pyrimidinediamine]
IC50 [1, 9]: 844 nM
IC50 [2, 10]: 3160 nM

Molecule: CCC(=O)NS(=O)(=O)c1cc(Nc2ncc(F)c(Nc3ccc(C=CC#N)c(Cl)c3)n2)ccc1C [III-28, N4-(3-Chloro-4-cyanoethylene-phenyl)-5-fluoro-N2-(4-methyl-3-propionylaminosulfonylphenyl)-2,4-pyrimidinediamine]
IC50 [1, 7]: 17400 nM
IC50 [2, 8]: 3750 nM

Molecule: Cc1ccc(Nc2ncc(F)c(Nc3ccc(OC4CCN(C)CC4)c(Cl)c3)n2)cc1S(N)(=O)=O [II-8, N2-(3-Aminosulfonyl-4-methylphenyl)-5-fluoro-N4-{3-chloro-4-[(1-methylpiperidin-4-yl)oxy]phenyl}-2,4-pyrimidinediamine]
IC50 [1, 9]: 564 nM
IC50 [2, 10]: 38.8 nM

Molecule: N2-(3-Aminosulfonyl-4-methoxy-5-methylphenyl)-5-fluoro-N4-(4-trifluoromethylphenyl)-2,4-pyrimidinediamine [VI-34]
IC50 [1, 3]: 839 nM
IC50 [2, 4]: 157 nM

Molecule: Cc1cc(CCC#N)ccc1Nc1nc(Nc2cccc(S(N)(=O)=O)c2)ncc1F [III-24, N2-(3-Aminosulfonylphenyl)-N4-(4-cyanoethylene-2-methylphenyl)-5-fluoro-2,4-pyrimidinediamine]
IC50 [1, 7]: 1620 nM
IC50 [2, 8]: 258 nM

Molecule: CNC(=O)OCCc1ccc(Nc2nc(Nc3ccc(Cl)c(S(N)(=O)=O)c3)ncc2F)cc1 [III-61, N2-(3-Aminosulfonyl-4-chlorophenyl)-5-fluoro-N4-{4-[2-(methylaminocarbonyloxy)ethyl]phenyl}-2,4-pyrimidinediamine]
IC50 [1, 9]: 1080 nM
IC50 [2, 10]: 259 nM

Molecule: Cc1noc(COc2cccc(Nc3nc(Nc4ccc(S(N)(=O)=O)cc4)ncc3F)c2)n1 [Compound I-253, N2-(4-Aminosulfonylphenyl)-5-fluoro-N4-[3-(3-methyl-1,2,4-oxadiazol-5-yl)methyleneoxyphenyl]-2,4-pyrimidinediamine]
IC50 [1, 7]: 2560 nM
IC50 [2, 8]: 127 nM

Molecule: Cc1ccc(Nc2ncc(F)c(Nc3ccc(CCC#N)c(C(F)(F)F)c3)n2)cc1S(N)(=O)=O [III-30, N4-(4-Cyanoethylene-3-trifluoromethylphenyl)-5-fluoro-N2-(4-methyl-3-aminosulfonylphenyl)-2,4-pyrimidinediamine]
IC50 [1, 7]: 319 nM
IC50 [2, 8]: 64.5 nM

Molecule: CNC(=O)COc1ccc(Nc2nc(Nc3ccc(Cl)c(S(N)(=O)=O)c3)ncc2C)cc1Cl [Compound I-153, N2-(3-Aminosulfonyl-4-chlorophenyl)-N4-(3-chloro-4-methylaminocarbonylmethoxyphenyl)-5-methyl-2,4-pyrimidinediamine]
IC50 [1, 9]: 334 nM
IC50 [2, 10]: 114 nM

Continued, in another order:

IC50 [2, 4]: 14100 nM
Molecule: Cc1ccc(Nc2ncc(F)c(NC3CN(Cc4ccccc4)CCC3C)n2)cc1S(N)(=O)=O (racemic) [VII-3, Racemic N2-(3-aminosulfonyl-4-methylphenyl)-N4-(1-benzyl-4-methylpiperidin-3-yl)-5-fluoro-2,4-pyrimidinediamine]
IC50 [1, 3]: 16500 nM

IC50 [2, 6]: 110 nM
Molecule: Cc1ccc(Nc2ncc(F)c(Nc3ccc(CCCCF)cc3)n2)cc1S(N)(=O)=O [VI-93, N2-(3-Aminosulfonyl-4-methylphenyl)-5-fluoro-N4-[4-(4-fluorobutyl)phenyl]-2,4-pyrimidinediamine]
IC50 [1, 5]: 560 nM

IC50 [2, 4]: 1940 nM
Molecule: Cc1ccc(Nc2ncc(F)c(Nc3ccc(C(=O)N4CCN(S(C)(=O)=O)CC4)cc3)n2)cc1S(N)(=O)=O [IX-30, N2-(3-Aminosulfonyl-4-methylphenyl)-5-fluoro-N4-[4-(1-methanesulfonyl-4-piperizinyl)carbonylphenyl]-2,4-pyrimidinediamine]
IC50 [1, 3]: 6800 nM

IC50 [2, 6]: 21.1 nM
Molecule: COc1ccc(Nc2nc(Nc3ccc(C)c(S(N)(=O)=O)c3)ncc2F)cc1Cl [VI-4, N2-(3-Aminosulfonyl-4-methylphenyl)-N4-(3-chloro-4-methoxyphenyl)-5-fluoro-2,4-pyrimidinediamine]
IC50 [1, 5]: 231 nM

IC50 [2, 4]: 174 nM
Molecule: CNS(=O)(=O)c1cc(Nc2ncc(F)c(Nc3ccc(-c4ccccn4)c(OCCl)c3)n2)ccc1C [IX-54, 5-Fluoro-N2-[3-N-(methyl)aminosulfonyl-4-methylphenyl]-N4-[4-(2-pyridinyl)-3-chloromethyleneoxyphenyl]-2,4-pyrimidinediamine]
IC50 [1, 3]: 2470 nM

IC50 [2, 4]: 173 nM
Molecule: CNS(=O)(=O)c1cc(Nc2ncc(F)c(Nc3ccc(Cn4ccnc4C)cc3)n2)ccc1C [III-93, 5-Fluoro-N2-[3-(N-methylaminosulfony)-4-methylphenyl]-N4-[4-(2-methyl-1-imidazolylmethyl)phenyl]-2,4-pyrimidinediamine]
IC50 [1, 3]: 819 nM

IC50 [2, 6]: 236 nM
Molecule: CN1C(=O)COc2ccc(Nc3nc(Nc4ccc(S(N)(=O)=O)cc4)ncc3F)cc21 [VII-40, N2-(4-Aminosulfonylphenyl)-5-fluoro-N4-(4-methyl-3-oxo-benz[1,4]oxazin-6-yl)-2,4-pyrimidinediamine]
IC50 [1, 5]: 6480 nM

IC50 [2, 4]: 6330 nM
Molecule: CC(=O)N1CCN(C(=O)c2ccc(Nc3nc(Nc4ccc(C)c(S(N)(=O)=O)c4)ncc3F)cc2)CC1 [IX-24, N4-[4-(1-Acetyl-4-piperizinyl)carbonylphenyl]-N2-(3-Aminosulfonyl-4-methylphenyl)-5-fluoro-2,4-pyrimidinediamine]
IC50 [1, 3]: 38400 nM

IC50 [2, 6]: 62.3 nM
Molecule: COc1c(C)cc(Nc2ncc(F)c(Nc3ccc4c(c3)NC(=O)C(F)(F)O4)n2)cc1S(N)(=O)=O [VII-38, N2-(3-Aminosulfonyl-4-methoxy-5-methylphenyl)-N4-(2,2-difluoro-4H-benz[1,4]oxazin-3-on-6-yl)-5-fluoro-2,4-pyrimidinediamine]
IC50 [1, 5]: 417 nM

IC50 [2, 6]: 62.2 nM
Molecule: COc1ccc(Nc2nc(Nc3ccc(S(N)(=O)=O)cc3)ncc2F)cc1Cl [VI-106, N2-(4-Aminosulfonylphenyl)-5-fluoro-N4-(4-methoxy-3-chlorophenyl]-2,4-pyrimidinediamine]
IC50 [1, 5]: 1200 nM

IC50 [2, 6]: 399 nM
Molecule: COc1ccc(Nc2nc(Nc3ccc(Cl)c(S(N)(=O)=O)c3)ncc2F)nc1N [VII-8, N2-(3-Aminosulfonyl-4-chlorophenyl)-N4-(2-amino-3-methoxypyrid-6-yl)-5-fluoro-2,4-pyrimidinediamine]
IC50 [1, 5]: 8630 nM
